Measurements as given in US8846733B2, “Oxazolyl-methylether derivatives as ALX receptor agonists” (Actelion Pharmaceuticals Ltd., priority 2010, dated 2014).
Each block holds one molecule with its values, some of them ahead of it.

What was measured:
[1] = target: T1, recombinant human ALX receptor (Homo sapiens, UniProt P25090); experiment: Intracellular calcium measurements (FLIPR), ALX receptor agonistic activity; assay type: cell-based; settings: HEK293-hALXR-Gα16 cells
T1 construct: expressed in transfected cells; host or cells: HEK293 (HEK293-hALXR-Gα16)
T1 sequence (P25090 1-351): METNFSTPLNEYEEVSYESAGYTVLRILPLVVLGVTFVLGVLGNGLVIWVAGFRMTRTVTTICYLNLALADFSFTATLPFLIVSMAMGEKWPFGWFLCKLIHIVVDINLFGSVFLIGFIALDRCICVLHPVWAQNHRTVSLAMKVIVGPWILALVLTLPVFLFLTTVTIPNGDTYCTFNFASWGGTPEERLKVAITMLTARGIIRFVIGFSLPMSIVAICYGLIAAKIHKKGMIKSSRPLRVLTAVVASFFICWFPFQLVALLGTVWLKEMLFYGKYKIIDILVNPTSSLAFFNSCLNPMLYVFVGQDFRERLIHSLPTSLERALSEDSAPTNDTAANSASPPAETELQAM
Description: The ALX receptor agonistic activity of the compounds of formula (I) is determined in accordance with the following experimental method.
Intracellular Calcium Measurements:
Cells expressing recombinant human ALX receptor and the G-protein Gα16 (HEK293-hALXR-Gα16) were grown to 80% confluency in Growing Medium (GM). Cells were detached from culture dishes with a cell dissociation buffer (Invitrogen, 13151-014), and collected by centrifugation at 1,000 rpm at rt for 5 min in Assay Buffer (AB) (equal parts of Hank's BSS (Gibco, 14065-049) and DMEM without Phenol Red (Gibco, 11880-028)). After 60 min incubation at 37° C. under 5% CO2 in AB supplemented with 1 μM Fluo-4 (AM) (Invitrogen, F14202) and 20 mM HEPES (Gibco, 15630-056), the cells were washed and resuspended in AB. They were then seeded onto 384-well FLIPR assay plates (Greiner, 781091) at 50,000 cells in 70 μl per well and sedimented by centrifugation at 1,000 rpm for 1 min. Stock solutions of test compounds were made up at a concentration of 10 mM in DMSO, and serially diluted in AB to concentrations required for activation dose response curves. WKYMVm (Phoenix Peptides) was used as a reference agonist. A FLIPR Tetra instrument (Molecular Devices) was operated according to the manufacturer's standard instructions, adding 4 μl of test compound dissolved at 10 mM in DMSO and diluted prior to the experiment in assay buffer to obtain the desired final concentration. Changes in fluorescence were monitored before and after the addition of test compounds at lex=488 nm and lem=540 nm. Emission peak values above base level after compounds addition were exported after base line subtraction. Values were normalized to high-level control (WKYMVm compound, 10 nM final concentration) after subtraction of the base line value (AB addition).

[2] = Plasma stability assay, human plasma; assay type: in vitro ADME; settings: for remaining concentration at Tlast / half-life at 1 μM: human plasma; for half-life at 1 μM: pH 7.4, 37° C.
Description: (§1) Rat or human plasma adjusted at pH 7.4 with lactic acid or ammonium hydroxide, were equilibrated at 37° C. under orbital shaking in an incubator containing 5% CO2. The reaction was initiated by the addition of 1 μM of compounds (1 μl of 1 mM stock solution in DMSO in 999 μl of plasma). At 0.01 h, 0.25 h, 0.5 h, 1 h, 2 h, 4 h, 6 h and 24 h, aliquots (30 μl) were transferred in a 96 well plate containing 90 μl MeOH placed on ice to stop the reaction. After vortexing for 20 min at 1400 rpm on an Eppendorf thermomixer, the plates were centrifuged at 3220 g for 20 min at 4° C. and the supernatants were analyzed with LC-MSMS. Calibration samples in plasma containing 0.1% of dichlorvos were prepared and analysed in parallel to the incubation samples to allow the quantification. Half lives in hours were then calculated. In addition the remaining concentration of the respective compound after time Tlast relative to the concentration at the beginning has been determined (table 3).

[3] = Plasma stability assay, rat plasma; assay type: in vitro ADME; settings: for half-life at 1 μM: pH 7.4, 37° C.
Description: as §1

[4] = Plasma stability assay with tritiated compounds, rat plasma; assay type: in vitro ADME
Description: (§2) Rat or human plasma adjusted at pH 7.4 with lactic acid were equilibrated at 37° C. under orbital shaking. The reaction was initiated by the addition of 10 μM of tritiated compound (7.5 μl of 1 mM stock solution in DMSO in 742.5 μl of plasma). At the beginning and after 4 h, 6 h and 24 h, aliquots (100 μl) were transferred in a tube containing 400 μl MeOH placed on ice to stop the reaction. After vortexing for 20 min at 1400 rpm on an Eppendorf thermomixer, the plates were centrifuged at 3220 g for 20 min at 4° C. and an aliquot of supernatants was analyzed with liquid chromatography coupled to a H3-radiodetector. The remaining pellet was further extracted with AcCN in three additional cycles of resuspension, mixing 20 min at 2000 rpm on an eppendorf thermomixer and centrifugation (3220 g for 20 min at 4° C.). The total radioactivity was measured in the collected supernatants. The final pellet was then solubilized in NaOH 1N and the total radioactivity was measured (table 4).

[5] = Plasma stability assay with tritiated compounds, human plasma; assay type: in vitro ADME
Description: as §2

EC50 ([1]; Table 1, exemplified compounds): 1.7 nM
remaining concentration at Tlast ([2]; Tlast 24 h): 101%
half-life at 1 μM [2]: > 24 h
stability in plasma, in words ([2]; rat and human plasma, compared with reference compound 11 / compounds of WO 2009/077990): remarkably more stable
remaining concentration at Tlast ([3]; Tlast 24 h): 88%
half-life at 1 μM [3]: > 24 h
Compound: COCc1coc(Cn2ncc(NC(=O)c3nc(C)oc3-c3cccc(C)c3)n2)n1 [Example 2, N-(2-((4-(Methoxymethyl)oxazol-2-yl)methyl)-2H-1,2,3-triazol-4-yl)-2-methyl-5-(m-tolyl)oxazole-4-carboxamide]

EC50 ([1]; Table 2, reference compounds): 8.1 nM
Compound: COCc1nc(Cn2ncc(NC(=O)c3nc(C)oc3-c3cccc(C)c3)n2)co1 [reference compound 10, N-(2-((2-(Methoxymethyl)oxazol-4-yl)methyl)-2H-1,2,3-triazol-4-yl)-2-methyl-5-(m-tolyl)oxazole-4-carboxamide]

remaining concentration at Tlast ([2]; Tlast 6 h): 18%
half-life at 1 μM [2]: 2.4 h
remaining concentration at Tlast ([3]; Tlast 6 h): 42%
half-life at 1 μM [3]: 4.7 h
total radioactivity ([4]; rat plasma pellet, nominal incubation time 0.01 h): 419 dpm
total radioactivity ([4]; rat plasma pellet, nominal incubation time 4.0 h): 124853 dpm
total radioactivity ([4]; rat plasma pellet, nominal incubation time 6.4 h): 153683 dpm
total radioactivity ([4]; rat plasma pellet, nominal incubation time 24.4 h): 180032 dpm
total radioactivity ([4]; rat plasma supernatant, nominal incubation time 0.01 h, 10 μM tritiated compound): 173116 dpm
total radioactivity ([4]; rat plasma supernatant, nominal incubation time 4.0 h): 94798 dpm
total radioactivity ([4]; rat plasma supernatant, nominal incubation time 6.4 h): 45228 dpm
total radioactivity ([4]; rat plasma supernatant, nominal incubation time 24.4 h): 4816 dpm
total radioactivity ([5]; human plasma pellet, nominal incubation time 0.01 h): 918 dpm
total radioactivity ([5]; human plasma pellet, nominal incubation time 4.0 h): 170136 dpm
total radioactivity ([5]; human plasma pellet, nominal incubation time 6.4 h): 185420 dpm
total radioactivity ([5]; human plasma pellet, nominal incubation time 24.4 h): 227567 dpm
total radioactivity ([5]; human plasma supernatant, nominal incubation time 0.01 h, 10 μM tritiated compound): 158854 dpm
total radioactivity ([5]; human plasma supernatant, nominal incubation time 4.0 h): 38918 dpm
total radioactivity ([5]; human plasma supernatant, nominal incubation time 6.4 h): 10532 dpm
total radioactivity ([5]; human plasma supernatant, nominal incubation time 24.4 h): 3134 dpm
Compound: CC(=O)c1coc(Cn2ncc(NC(=O)c3nc(C)oc3-c3cccc(C)c3)n2)n1 [reference compound 11, N-(2-((4-acetyloxazol-2-yl)methyl)-2H-1,2,3-triazol-4-yl)-2-methyl-5-(m-tolyl)oxazole-4-carboxamide]
association of drug related material with plasma proteins, in words ([5]; rat and human plasma, tritiated compound, radioactivity moving from supernatant to pellet): strong association of drug related material with plasma proteins
